The results in this text go back to ChEMBL document CHEMBL3217484, “N1-Benzyl substituted cambinol analogues as isozyme selective inhibitors of the sirtuin family of protein deacetylases” (Medchemcomm, 2011).

Experiment [1] concerns the target T1, NAD-dependent protein deacetylase sirtuin-2 (Homo sapiens) (UniProt Q8IXJ6).
T1 sequence (whole entry): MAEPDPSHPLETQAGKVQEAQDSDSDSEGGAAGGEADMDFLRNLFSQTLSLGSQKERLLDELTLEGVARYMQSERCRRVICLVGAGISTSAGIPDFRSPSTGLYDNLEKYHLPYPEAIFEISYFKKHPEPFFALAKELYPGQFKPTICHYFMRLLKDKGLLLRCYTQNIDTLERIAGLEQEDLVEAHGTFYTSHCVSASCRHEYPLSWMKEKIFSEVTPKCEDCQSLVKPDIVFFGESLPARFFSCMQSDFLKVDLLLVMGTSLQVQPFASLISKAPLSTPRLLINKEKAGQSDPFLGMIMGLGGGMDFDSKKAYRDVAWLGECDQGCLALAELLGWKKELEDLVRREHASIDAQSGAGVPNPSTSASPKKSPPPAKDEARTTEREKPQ
The experiment in a line: Inhibition of human recombinant SIRT2 using fluor de Lys as substrate at 60 uM after 1 hr by fluorimeter analysis.

Experiment [2] has as its target T2, NAD-dependent protein deacetylase sirtuin-1 (Homo sapiens) (UniProt Q96EB6).
T2 sequence (whole entry): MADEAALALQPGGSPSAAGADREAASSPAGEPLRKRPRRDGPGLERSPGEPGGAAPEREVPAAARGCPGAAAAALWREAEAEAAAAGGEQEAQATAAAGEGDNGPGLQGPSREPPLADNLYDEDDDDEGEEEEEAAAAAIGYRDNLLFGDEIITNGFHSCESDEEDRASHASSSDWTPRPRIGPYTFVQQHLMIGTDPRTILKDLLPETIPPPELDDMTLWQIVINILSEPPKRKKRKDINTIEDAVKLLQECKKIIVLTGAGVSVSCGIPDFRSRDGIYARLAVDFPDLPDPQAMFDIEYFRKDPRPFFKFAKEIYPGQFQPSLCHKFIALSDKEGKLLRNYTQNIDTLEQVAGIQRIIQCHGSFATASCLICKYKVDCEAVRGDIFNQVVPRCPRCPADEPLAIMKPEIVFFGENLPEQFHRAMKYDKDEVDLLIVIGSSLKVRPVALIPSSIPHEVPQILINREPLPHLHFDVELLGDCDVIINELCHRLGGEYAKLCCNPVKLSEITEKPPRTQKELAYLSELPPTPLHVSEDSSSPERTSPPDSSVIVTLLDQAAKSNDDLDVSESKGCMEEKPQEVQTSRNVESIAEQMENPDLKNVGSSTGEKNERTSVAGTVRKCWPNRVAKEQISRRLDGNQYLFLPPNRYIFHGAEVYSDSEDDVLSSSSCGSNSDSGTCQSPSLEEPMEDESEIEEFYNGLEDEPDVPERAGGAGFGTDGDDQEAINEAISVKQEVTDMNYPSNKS
The experiment in a line: Inhibition of human recombinant SIRT1 using fluor de Lys as substrate at 60 uM after 1 hr by fluorimeter analysis.

Experiment [3] concerns the target T3, NAD-dependent protein deacetylase sirtuin-1 (Homo sapiens, UniProt Q96EB6).
T3 sequence (Q96EB6 whole entry): T2 sequence (whole entry)
Briefly: Inhibition of human recombinant SIRT1 using fluor de Lys as substrate after 1 hr by fluorimeter analysis.

The target of experiment [4] is T4, NAD-dependent protein deacetylase sirtuin-2 (Homo sapiens, UniProt Q8IXJ6).
T4 sequence (Q8IXJ6 whole entry): T1 sequence (whole entry)
Briefly: Inhibition of human recombinant SIRT2 using fluor de Lys as substrate after 1 hr by fluorimeter analysis.

A further experiment deals with H1299. Briefly: Inhibition of sirtuin in human H1299 cells assessed increase in alpha-tubulin acetylation at 60 uM after 24 hrs by Western blot analysis in presence of trichostatin-A relative to control. It is filed as cell-based.

Bounds are passed on as bounds.

By inhibition is commonly meant the drop in the measured response relative to a control, in per cent. With `CCCCn1c(-c2ccc(Cl)cc2)c(Cc2c(OC)ccc3ccccc23)c(=O)[nH]c1=S`, the inhibition came to 49.4% in experiment [1] and 18.4% in experiment [2].

For `CCCOc1ccc(Cn2c(-c3ccccc3)c(Cc3c(OCc4ccccc4)ccc4ccccc34)c(=O)[nH]c2=S)cc1`, the inhibition in experiment [1] stood at 65.1%; in experiment [2], 22.8%.

The term IC50 denotes the concentration that inhibits the measured activity by half. Turning to `CCCOc1ccc(Cn2c(-c3ccccc3)c(Cc3c(OC)ccc4ccccc34)c(=O)[nH]c2=S)cc1`, the figures for the inhibition in experiment [1] and in experiment [2] were 71.8% and 38%, respectively. The figures for the IC50 in experiment [3] and in experiment [4] were 61.9 µM and 11 µM, respectively.

As to `CCOc1ccc(Cn2c(-c3ccccc3)c(Cc3c(OC)ccc4ccccc34)c(=O)[nH]c2=S)cc1`, the inhibition in experiment [1] was 72.2%; in experiment [2] it was 19.3%. The IC50 is more than 120 µM in experiment [3] and 16 µM in experiment [4].

With `CCCCOc1ccc(Cn2c(-c3ccccc3)c(Cc3ccccc3)c(=O)[nH]c2=S)cc1`, the inhibition was determined as 63.3% in experiment [1] and 8.5% in experiment [2].

Consider `O=c1[nH]c(=S)n(Cc2ccccc2)c(-c2ccccc2)c1Cc1ccccc1`, for which the inhibition in experiment [1] worked out at 45.1%; in experiment [2] it was 23%.

For `COc1ccc(Cn2c(-c3ccccc3)c(Cc3ccccc3)c(=O)[nH]c2=S)cc1`, the inhibition in experiment [1] worked out at 67%; in experiment [2], 32.2%.

Consider `CCCOc1ccc(Cn2c(-c3ccccc3)c(Cc3c(O)ccc4ccccc34)c(=O)[nH]c2=S)cc1`, for which the inhibition stood at 85.4% in experiment [1] and 15.6% in experiment [2]. Moreover, the results for the IC50 in experiment [3] and in experiment [4] were more than 120 µM and 6 µM, respectively.

For `CCOc1ccc(Cn2c(-c3ccccc3)c(Cc3ccccc3)c(=O)[nH]c2=S)cc1`, the results for the inhibition in experiment [1] and in experiment [2] were 73.3% and 35%, respectively. Besides, the figures for the IC50 in experiment [3] and in experiment [4] were 68.1 µM and 10 µM, respectively.

`COc1ccc(Cn2c(-c3ccccc3)c(Cc3c(OCc4ccccc4)ccc4ccccc34)c(=O)[nH]c2=S)cc1`: the inhibition in experiment [1] amounted to 56.9%; in experiment [2], 29.8%.

For the compound `COc1ccc(Cn2c(-c3ccccc3)c(Cc3c(OC)ccc4ccccc34)c(=O)[nH]c2=S)cc1`, the inhibition in experiment [1] is 66.1%; in experiment [2] it was 8.8%.

Regarding `O=c1cc(-c2ccccc2)n(Cc2ccccc2)c(=S)[nH]1`, the inhibition was 27% in experiment [1] and 1.8% in experiment [2].

In the case of `O=c1[nH]c(=S)n(Cc2ccccc2)c(-c2ccccc2)c1Cc1c(O)ccc2ccccc12`, the values for the inhibition in experiment [1] and in experiment [2] were 62% and 10.8%, respectively.

For `COc1ccc2ccccc2c1Cc1c(-c2ccccc2)n(Cc2ccccc2)c(=S)[nH]c1=O`, in experiment [1], the inhibition is 37.7%.

For `O=c1[nH]c(=S)n(Cc2ccccc2)c(-c2ccccc2)c1Cc1c(OCc2ccccc2)ccc2ccccc12`, the inhibition in experiment [1] came out at 48.4%; in experiment [2] it was 25.4%.

With `COc1ccc(Cn2c(-c3ccccc3)c(Cc3c(O)ccc4ccccc34)c(=O)[nH]c2=S)cc1`, the inhibition in experiment [1] turned out to be 73.4%. Further, the IC50 in experiment [3] was found to be 58.2 µM; in experiment [4], 12 µM.

Take `COc1ccc2ccccc2c1Cc1c(-c2ccccc2)n(C)c(=S)[nH]c1=O`: the inhibition in experiment [1] turned out to be 37.7%; in experiment [2], 36.2%.

Turning to `CCCCOc1ccc(Cn2c(-c3ccccc3)c(Cc3c(OC)ccc4ccccc34)c(=O)[nH]c2=S)cc1`, the inhibition in experiment [1] came to 66.1%; in experiment [2] it was 32.7%.

As to `CCCCn1c(-c2ccccc2C)c(Cc2c(OC)ccc3ccccc23)c(=O)[nH]c1=S`, the inhibition in experiment [1] was determined as 37.3%; in experiment [2], 11.5%.

`O=c1[nH]c(=S)[nH]c(-c2ccccc2)c1Cc1c(O)ccc2ccccc12`: the fold change (FC) in the experiment on H1299 amounted to 1.3.

As for `CCOc1ccc(Cn2c(-c3ccccc3)c(Cc3c(OCc4ccccc4)ccc4ccccc34)c(=O)[nH]c2=S)cc1`, the inhibition in experiment [1] was found to be 67.2%; in experiment [2], 36.6%.

Regarding `CCOc1ccc(Cn2c(-c3ccccc3)c(Cc3c(O)ccc4ccccc34)c(=O)[nH]c2=S)cc1`, the inhibition was 88.9% in experiment [1] and 13.4% in experiment [2]. The IC50 in experiment [3] was more than 120 µM; in experiment [4], 4 µM. Moreover, the fold change (FC) in the experiment with H1299 came to 1.7.
